Measured values from ChEMBL document CHEMBL3507680, “University of Dundee, Gates Library screen for HepG2 cell viability”.

Assay: Human HepG2 cell viability assay in 384 well format
Type: toxicity, cell-based
Set-up: dose 125 nL, time 70.5 hour; concentration not given beside the values
Conditions: HepG2 cells, read-out: Inhibition

SMILES	cytotoxicity at 70.5 h
OCCNc1nc(NCc2cccnc2)nc2nccnc12	16.3%
CCN(CC)[C@@H]1CN(Cc2cnn(C)c2)[C@@H]2COC[C@H]12	-5.97%
Cc1ccc(C(=O)N2C[C@H](OCc3cccnc3)[C@H]3COC[C@H]32)cn1	-2.21%
Cc1ccc(N2CCCC3(COCCN(c4ncccn4)C3)C2)nn1 (stereo not drawn)	4.86%
Cc1nc(CNc2ncc(Br)cn2)n[nH]1	-5.62%
CCC(C)N(Cc1cccnc1)C(=O)c1ccc(F)c(O)c1 (stereo not drawn)	12.9%
O=C(CCn1ncc2c(Cl)cccc21)NCCCn1cccn1	-5.51%
CCOc1ncccc1NC(=O)c1sccc1C	-7.66%
CC(=O)N1CCN(Cc2c(C)sc3ccccc23)CC(O)C1 (stereo not drawn)	-3.67%
Cc1ccc(Cl)c(NC(=O)NC2(C)CCOC2)c1 (stereo not drawn)	-5.5%
Cc1nc(C)n(CC2CCCCN2CC(=O)Nc2nnc(C)s2)n1 (stereo not drawn)	1.52%
O=C(Cc1ccc(F)c(Br)c1)NC1CCN(CC(F)F)CC1	3.07%
Cc1ccc(F)c(OC2(C(=O)O)CCN(C(=O)c3ccccc3)CC2)c1	-6.1%
CCc1nnc2n1CCN(C(=O)c1cnc(C3CC3)s1)C2	-9.47%
CCOc1ncnc2c1CCN(Cc1cccs1)CC2	-8.1%
COc1ccc(C2CCCN2C(=O)c2cc3c([nH]c2=O)CCC3)cc1 (stereo not drawn)	-2.02%
CCS(=O)(=O)NC1CCCN(c2cc(C)ccc2F)C1=O (stereo not drawn)	-1.61%
CCN(Cc1c(C)nn(CC)c1C)S(=O)(=O)c1cnn(C)c1C	14.5%
CSCC(C)C(=O)NCc1c(C)nc2cc(=O)[nH]n2c1C (stereo not drawn)	7.35%
CNc1ncc(-c2csc(NC(=O)C[C@H]3COCCN3)n2)cn1	-11.4%
CCc1nnc2n1CCN(CC(O)CN1CCC(C)CC1)C2 (stereo not drawn)	2.99%
COc1nc(C)c(C(=O)N2CCc3[nH]nc(Cc4ccccc4)c3C2)s1	-1.57%
COCCN1CCc2onc(C(c3ccccc3)c3ccccc3)c2C1	-8.42%

SMILES	cytotoxicity at 70.5 h
CC1(C)[C@H]2CC=C(CN3CCCn4nc(CCC(=O)O)cc4C3)[C@@H]1C2	-14.3%
COCCC1COC2(CCN(C(=O)Cc3ccccc3)CC2)C1 (stereo not drawn)	-13.5%
O=C(Nc1ccccc1F)C1=NOC2(CCNCC2)C1	-2.62%
CCn1c(C)nc2cc(NC(=O)CC3CCN(S(C)(=O)=O)CC3)ccc21	-18.6%
NS(=O)(=O)c1cccnc1Nc1c(Cl)cccc1Cl	14%
CNC(=O)CN1CCC(NC(=O)Cc2ccccc2OC(C)C)CC1	-10.8%
CS(=O)(=O)N(Cc1ccon1)c1ccc(F)cc1	-2.76%
Cc1noc(C)c1C(=O)N1CCCN(C)c2ccc(Cl)cc21	-3.33%
O=C(NCC1CCOC1)c1cc(-c2ccc(F)cc2)[nH]n1 (stereo not drawn)	-10.8%
CCn1c(C2CCN(C(=O)c3cc(CC(C)C)no3)CC2)nn(C)c1=O	3.74%
NCCC(=O)N1CCC2(CC1)CN(C(=O)Cc1ccc(Cl)cc1)CCO2	-14.3%
COCC(=O)N1CCN(S(=O)(=O)c2ccccc2)[C@H]2CS(=O)(=O)C[C@H]21	-7.41%
CC(=O)N1CCC(N2C[C@@H](F)[C@@H](OCc3nc4ncccc4[nH]3)C2)CC1	-2.27%
CC(O)CCN(C)C(=O)Nc1cccc(F)c1 (stereo not drawn)	-8.99%
COc1ccc(OC)c(S(=O)(=O)NCC2(OC)CCSC2)c1 (stereo not drawn)	-7.48%
Cc1nccn1-c1nccnc1C1CCN(Cc2ccc(F)cc2)CC1	24.1%
CCC(CO)N(Cc1ccco1)C(=O)c1cccc(C)c1O (stereo not drawn)	-0.632%
CC(C)NC(=O)c1n[nH]c(-n2cnnc2)n1	-0.175%
COC(=O)C(C)NCc1ccc2[nH]c(C)c(C)c2c1 (stereo not drawn)	-0.287%
CCC1COCCN1C(=O)NCc1cccc(-c2cnn(C)c2)c1 (stereo not drawn)	-6.22%
CN(CC(F)(F)F)C(=O)CNC(=O)N1CCCC(N(C)C)C1 (stereo not drawn)	-8.19%
O=C(COC1CCCC1)N1C[C@@H]2CN(Cc3ccoc3)CCO[C@@H]2C1	-6.78%
Cc1ncsc1-c1ccn(CC(=O)Nc2cnn(C)n2)n1	45.6%

SMILES	cytotoxicity at 70.5 h
O=C1[C@H]2CN(Cc3ccco3)C[C@H]2CN1c1ccsc1	-11.1%
COc1ccc(C(NCc2cccc(C#N)c2)C(C)C)cc1 (stereo not drawn)	5.48%
Cn1cc(C2CCCN2C(=O)c2ccc(OCC3CC3)nc2)cn1 (stereo not drawn)	-4.15%
O=C1C[C@H]2CC[C@@H](CN1)N2C(=O)CCc1ccc2c(c1)OCO2	-12.8%
CCCC(C)(C)NC(=O)c1ccc(CC2CC(=O)NC2=O)cc1 (stereo not drawn)	0.713%
Cc1cc(Cn2c(=O)c3c(C(F)(F)F)cc(C)nc3n2C)on1	-3.01%
CC(C)(C)NC(=O)N1CCN2C(=O)OCC2C1 (stereo not drawn)	-3.52%
CC(C)CS(=O)(=O)Nc1ccc([C@H]2OCC(=O)N[C@@H]2CO)cc1	0.34%
Cc1ccnc(NCC2(N(C)C)CCOCC2)n1	-2.1%
CC(C)N1[C@H](Cn2cncn2)C[C@@H]2CN(Cc3nccn3C)CC[C@@H]21	-6.18%
CNC(=O)c1cn[nH]c1C1CCCN1C(=O)c1cccnc1 (stereo not drawn)	-4.17%
Nc1nnnn1NCc1cccc2ccccc12	-11.8%
CCC(C)CS(=O)(=O)NCCc1csc(N2CCCC2)n1 (stereo not drawn)	-1.21%
CS(=O)(=O)c1nnc(NC(=O)CCc2ccc(Cl)s2)[nH]1	-10.2%
COCCCN1CC2(CCCN(c3ncnc4[nH]ccc34)C2)CCC1=O (stereo not drawn)	-6.33%
CNCc1ccc(OCc2ccc3c(c2)OCCO3)cc1	-3.57%
Cn1ccnc1CC1CCCN(C(=O)Nc2cccn(C)c2=O)C1 (stereo not drawn)	-2.41%
NC(=O)CNC1(c2ccc(Br)cc2)CCOCC1	22.4%
CN1CCc2c(CNC(=O)c3nccn3C)cncc2C1	-0.526%
CCOCC1CCN(C(=O)Nc2ccc3c(c2)CCCN3C)C1 (stereo not drawn)	-10.4%
CC(=O)N1CCC(C)(c2cc(C(=O)NCC(C)(C)C)nc(C)n2)CC1	9.62%
CC(CNC(=O)c1cccc(-n2cccn2)c1)Cn1ccnc1 (stereo not drawn)	2.48%
O=C(CO[C@@H]1CC[C@H]2[C@H]1OCCN2Cc1ccccn1)N1CCCC1	13.4%

SMILES	cytotoxicity at 70.5 h
CC(C)N(C)Cc1cnc2n1CCN(C(=O)Cc1ccccn1)C2	13.5%
c1ccc2sc(N3CCCC(Cn4cncn4)C3)nc2c1 (stereo not drawn)	-6.17%
c1csc(CN2Cc3nc(CN4CCCC4)oc3C2)c1	-1.36%
COc1ccccc1OCc1cc(C(=O)N2CCOCC2CO)n[nH]1 (stereo not drawn)	-5.23%
COc1ccc2c(c1)C1(CCN(Cc3ccoc3)CC1)N(C)CC2	-5.64%
Cc1nn(C)c(N(C)C)c1CNCc1ccc(Cn2cncn2)cc1	22.4%
O=C1NC(c2cnc(C3CCC3)s2)Nc2ncccc21 (stereo not drawn)	-26.5%
COCCc1noc(CNC(C)(CO)C2CCCCC2)n1 (stereo not drawn)	-0.882%
O=C(c1ccsc1)N1C[C@@H](CN2CCCC2)[C@@H](CO)C1	13.3%
Cc1nccc([C@@H]2C[C@@H]3CCN(Cc4cccs4)C[C@H]3O2)n1	4.44%
CNc1cccc(C2CCCN(C(=O)c3cccnc3)C2)n1 (stereo not drawn)	20.4%
CN(C)CC1(O)CCN(C(=O)Cc2ccc3ccccc3c2)C1 (stereo not drawn)	-1.7%
CS(=O)(=O)NC(=O)c1cnc2c(cnn2C2CCCC2)c1	-4.29%
CCOc1cc(C(=O)NS(C)(=O)=O)cc(-c2ccccc2)c1OC	0.968%
COCCOCCNS(=O)(=O)C1CS(=O)(=O)c2ccccc21 (stereo not drawn)	-7.79%
O=C(NCc1ccccc1OCC1CC1)C1CCOC1 (stereo not drawn)	1.2%
CCn1c(C2CCN(C(=O)c3cc(C4CC4)on3)CC2)nn(C)c1=O	-6.56%
COCC1CN(Cc2ccoc2)Cc2cn(CC3CCOCC3)nc21 (stereo not drawn)	-9.14%
Cc1csc2ncc(-c3ccnc(N4CCCC4)n3)c(=O)n12	-2.62%
CSc1cccc(CN(C)C(=O)c2ccc(C3CCCNC3)cc2)c1 (stereo not drawn)	-7.25%
c1ccc2oc(CCCN3CCCCC3Cn3cncn3)nc2c1 (stereo not drawn)	-7.94%
COc1ccccc1C(O)CNc1nccc(-c2ccc(C)nc2C)n1 (stereo not drawn)	-14%
CCS(=O)(=O)NC[C@]12COC[C@H]1CN(Cc1ccsc1)C2	7.84%

SMILES	cytotoxicity at 70.5 h
CC(C)(CO)Nc1cc(-c2ccncc2)ncn1	-2.83%
Cc1ccc(S(=O)(=O)N2C[C@H]3C[C@H](NC(=O)c4cscn4)[C@H]3C2)cc1	9.07%
O=C(O)c1c(-c2ccncc2)ncc2c1CCN(CC1CCOC1)C2 (stereo not drawn)	-4.36%
CC(=O)N1CCC2(CC1)CNc1ccc(F)cc12	-5.28%
CCC(CO)N(C/C(C)=C/c1ccco1)Cc1ccco1 (stereo not drawn)	-3.88%
CN(C)c1cnn(CC(=O)N2CCN(c3ccccc3)CC2)c(=O)c1	-5.83%
COc1cc(C(C)=O)ccc1SCC(=O)Nc1cccc(C)n1	-19.2%
O=C1C[C@@H]2[C@H](CCN2Cc2ccccn2)N1Cc1ccncc1	-4.28%
COCCn1cncc1Cn1ncc2ccccc2c1=O	-4.19%
O=C1NCCN1C1CCN(CCOc2ccccc2Cl)CC1	0.552%
O=S(=O)(NCc1ccc(S(=O)(=O)N2CCCC2)s1)c1ccc(Cl)c(Cl)c1	-22.7%
O=C(NCCCn1ccnc1)c1csc2c1CCCC2	15.4%
Cc1cnn(C2CN(CC(O)COCc3ccc4c(c3)OCO4)C2)c1 (stereo not drawn)	-0.637%
CCn1c(C)cc(C(=O)N2CCC(Nc3cccnn3)CC2)c1C	-108%
N#Cc1cccc(S(=O)(=O)NC(=O)COC2CCCC2)c1	11.3%
CNC(=O)Cc1ccccc1NC(=O)C1CCCC1	29.2%
O=C(NCCc1csc(-c2cnccn2)n1)c1cnn[nH]1	21.3%
CC(C)(C)NCc1ccc(OCc2ccc3c(c2)OCCO3)cc1	8.79%
CCc1ccccc1OCCN1CCC(NS(C)(=O)=O)CC1	3.87%
CSCC(CCO)NC(=O)Nc1cc(F)ccc1C (stereo not drawn)	10.3%
CC(C)(C)c1oc(C(N)=O)cc1CN1CCOC(C(F)(F)F)C1 (stereo not drawn)	1.68%
